pIC50: −log10 of the molar value.

In general, pIC50 refers to −log10 of the IC50, conventionally taken in molar units. A high value points to a low IC50.

The test system of one experiment is male Sprague-Dawley rats. The experiment in a line: APCC: in vivo screen, total cholesterol in rats fed a high fat, high cholesterol diet. Also noted: species or system rat (male Sprague-Dawley). The conditions noted are these: Rattus norvegicus, po, 16 h, 30 mg/kg by gavage, high cholesterol diet (5.5% peanut oil, 1.5% cholesterol, 0.5% cholic acid), dosed 4 PM, sacrificed 8 AM, read-out: APCC (% change TC): percent change in total cholesterol from control animals given vehicle and diet only. The source says: In an in vivo screen designated APCC, male Sprague-Dawley rats (200-225 g body weight) were randomly divided into treatment groups and dosed at 4 PM with either vehicle (CMC/Tween) or suspensions of invention compounds in vehicle. The normal chow diet was then replaced with a high fat, high cholesterol diet (5.5% peanut oil, 1.5% cholesterol, and 0.5% cholic acid). The rats consumed this diet ad libitum during the night and were sacrificed at 8 AM to obtain blood samples for cholesterol analysis using standard procedures. Statistical differences between mean cholesterol values for the same vehicle were determined using analysis of variance followed by Fisher's least significant test. The results of this trial for representative compounds of the present invention also appear in Table I as the percent change in total cholesterol (% TC) from control animals given vehicle and diet only. All compounds in the APCC test reported in Table 1 were administered by gavage at 30 mg/kg.

The target in experiment [1] is T1, acyl-CoA: cholesterol acyltransferase (ACAT) (Rattus norvegicus, UniProt Q7TQM4).
T1 construct: tissue preparation containing rat liver microsomes (designated LAI); from tissue; host or cells: rat liver microsomes
T1 sequence (Q7TQM4 1-524): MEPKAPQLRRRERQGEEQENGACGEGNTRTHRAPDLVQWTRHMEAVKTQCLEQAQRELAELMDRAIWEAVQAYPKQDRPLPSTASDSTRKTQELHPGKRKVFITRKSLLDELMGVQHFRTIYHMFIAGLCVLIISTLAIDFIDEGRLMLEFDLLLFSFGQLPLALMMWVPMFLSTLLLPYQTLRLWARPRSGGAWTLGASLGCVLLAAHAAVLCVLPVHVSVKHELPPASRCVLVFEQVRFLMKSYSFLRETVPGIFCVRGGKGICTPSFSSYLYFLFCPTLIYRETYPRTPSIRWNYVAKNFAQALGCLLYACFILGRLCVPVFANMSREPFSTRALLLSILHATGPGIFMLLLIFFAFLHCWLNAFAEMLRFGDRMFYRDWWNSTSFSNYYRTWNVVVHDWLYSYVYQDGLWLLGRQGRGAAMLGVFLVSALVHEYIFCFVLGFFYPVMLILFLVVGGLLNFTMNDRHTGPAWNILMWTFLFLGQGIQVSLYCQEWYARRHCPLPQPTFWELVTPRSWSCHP
The experiment in a line: LAI: in vitro inhibition of ACAT (acylation of cholesterol by radiolabeled oleic acid) in rat liver microsomes. The experiment is classed as biochemical. The procedure: The ability of representative compounds of the present invention to inhibit ACAT was measured using an in vitro test more fully described in F. J. Field and R. G. Salone, Biochemica et Biophysica Acta, 712:557-570 (1982). The test assesses the ability of a test compound to inhibit the acylation of cholesterol by oleic acid by measuring the amount of radiolabeled cholesterol oleate formed from radiolabeled oleic acid in a tissue preparation containing rat liver microsomes (designated LAI).
A general note: Liver microsomes are vesicles of endoplasmic reticulum, rich in cytochrome P450 enzymes.

In the case of `CC(C)c1cccc(C(C)C)c1NC(=O)CS(=O)(=O)Nc1c(C(C)C)cccc1C(C)C` [Example 4, N-(2,6-Diisopropylphenyl)-2-(2,6-diisopropylphenylsulfamoyl)-acetamide], in the experiment on male Sprague-Dawley rats, the change in vivo at 30 mg/kg was -51%.

`CCCCCCCCCCCCCCSC(=O)CS(=O)(=O)Nc1c(C(C)C)cccc1C(C)C` [Example 15, (2,6-Diisopropylphenylsulfamoyl)-thio-acetic Acid S-tetradecyl Ester]: the change in vivo at 30 mg/kg in the experiment on male Sprague-Dawley rats was -23%. Compound `CC(C)c1cccc(C(C)C)c1NS(=O)(=O)CC(=O)NC(c1ccccc1)c1ccccc1` [Example 8, 2-(2,6-Diisopropylphenylsulfamoyl)-N-diphenylmethylacetamide] had a pIC50 in experiment [1] of less than 6.00. Turning to `CC(C)c1cccc(C(C)C)c1NS(=O)(=O)CC(=O)N(Cc1ccccc1)C(C)C` [Example 7, N-Benzyl-N-isopropyl-2-(2,6-diisopropylphenylsulfamoyl)acetamide], the change in vivo at 30 mg/kg in the experiment on male Sprague-Dawley rats was -31%.

Take `CCCCCCCCCCCCCCOC(=O)CS(=O)(=O)Nc1c(C(C)C)cccc1C(C)C` [Example 20, (2,6-Diisopropylphenylsulfamoyl)-acetic Acid Tetradecyl Ester]: the change in vivo at 30 mg/kg in the experiment with male Sprague-Dawley rats was -45%.

Turning to `CCCCCCCCCCCCn1nnc(NC(=O)CS(=O)(=O)Nc2c(C(C)C)cccc2C(C)C)n1` [Example 2, 2-(2,6-Diisopropyl-phenylsulfamoyl)-N-(dodecyl-2-H-tetrazol-5-yl)-acetamide], in experiment [1], the pIC50 is 5.72. Besides, the change in vivo at 30 mg/kg with male Sprague-Dawley rats is -50%.

As to `CC(C)c1cccc(C(C)C)c1NS(=O)(=O)CC(=O)NCC(c1ccccc1)C1CCCC1` (centres unmarked) [Example 9, 2-(2,6-Diisopropylphenylsulfamoyl)-N-(2-cyclopentyl-2-phenylethyl)-acetamide], in experiment [1], the pIC50 was less than 6.00. As for `CCCCCCCCCCCCC(C)OC(=O)CS(=O)(=O)Nc1c(C(C)C)cccc1C(C)C` (centres unmarked) [Example 28, (2,6-Diisopropylphenylsulfamoyl)-acetic Acid 1-methyltridecyl Ester], in the experiment on male Sprague-Dawley rats, the change in vivo at 30 mg/kg was -39%.

In turn, `CCOC(=O)CS(=O)(=O)Nc1c(C(C)C)cccc1C(C)C` [Example 21, (2,6-Diisopropylphenylsulfamoyl)-acetic Acid Ethyl Ester] showed a negative logarithm of the IC50 (pIC50) in experiment [1] of less than 6.00. The change in vivo at 30 mg/kg in the experiment with male Sprague-Dawley rats was determined as 2%. The corresponding values for `CCCCCCOC(=O)CS(=O)(=O)Nc1c(C(C)C)cccc1C(C)C` [Example 26, (2,6-Diisopropylphenylsulfamoyl)-acetic Acid Hexyl Ester] are less than 6.00 and -5%. The corresponding values for `COc1cc(OC)c(OC(=O)CS(=O)(=O)Nc2c(C(C)C)cccc2C(C)C)c(OC)c1` [Example 25, (2,6-Diisopropylphenylsulfamoyl)-acetic Acid 2,4,6-trimethoxyphenyl Ester] are less than 6.00 and -6%.

With `CC(C)c1cc(C(C)C)c(OC(=O)CS(=O)(=O)Nc2c(C(C)C)cccc2C(C)C)c(C(C)C)c1` [Example 1, 2,4,6-Triisopropylphenyl(2,6-diisopropylphenylsulfamoyl)acetate], the change in vivo at 30 mg/kg in the experiment on male Sprague-Dawley rats is -19%.

Take `CCCCCCCCCCCCSC(=O)CS(=O)(=O)Nc1c(C(C)C)cccc1C(C)C` [Example 10, (2,6-Diisopropylphenylsulfamoyl)-thio-acetic Acid S-dodecyl Ester]: the change in vivo at 30 mg/kg in the experiment with male Sprague-Dawley rats is -71%. Take `CCCCCCCCCCCCSC(=O)CS(=O)(=O)Nc1ccc(F)cc1F` [Example 16, (2,4-Diifluorophenylsulfamoyl)-thioacetic Acid S-dodecyl Ester]: the pIC50 in experiment [1] was 6.64. Further, the change in vivo at 30 mg/kg with male Sprague-Dawley rats is -37%.

Consider `CCCCCCCCCCCCOC(=O)CS(=O)(=O)Nc1c(C(C)C)cccc1C(C)C` [Example 29, (2,6-Diisopropylphenylsulfamoyl)-acetic Acid Dodecylester], for which the change in vivo at 30 mg/kg with male Sprague-Dawley rats is -34%. Consider `CC(CCc1ccccc1)COC(=O)CS(=O)(=O)Nc1c(C(C)C)cccc1C(C)C` (centres unmarked) [Example 40, (2,6-diisopropylphenylsulfamoyl)-acetic acid, (2-methyl-4-phenylbutyl) ester], for which the pIC50 in experiment [1] was 5.38. In addition, the change in vivo at 30 mg/kg in the experiment on male Sprague-Dawley rats is -32%. Regarding `CCCCCCCCN(CCCCCCCC)C(=O)CS(=O)(=O)Nc1c(C(C)C)cccc1C(C)C` [Example 3, 2-(2,6-Diisopropylphenylsulfamoyl)-N,N-dioctylacetamide], the change in vivo at 30 mg/kg with male Sprague-Dawley rats was -19%. Still for that read-out and setting: the value for `CCCCCCCCCCCCNC(=O)CS(=O)(=O)Nc1c(C(C)C)cccc1C(C)C` [Example 5, 2-(2,6-Diisopropylphenylsulfamoyl)-N-dodecyl-acetamide] was -29%. Consider `CCCCCCCCCCCCCCCCCCSC(=O)CS(=O)(=O)Nc1c(C(C)C)cccc1C(C)C` [Example 18, (2,6-Diisopropylphenylsulfamoyl)-thioacetic Acid S-octadecyl Ester], for which the pIC50 in experiment [1] was less than 5.30. In addition, the change in vivo at 30 mg/kg in the experiment on male Sprague-Dawley rats was -35%.

Take `CC(C)c1cccc(C(C)C)c1NS(=O)(=O)CC(=O)Oc1c(C(C)C)cccc1C(C)C` [Example 22, 2,6,-Diissoproplphenyl(2,6-diisopropylphenylsulfamoyl)acetate]: the pIC50 in experiment [1] was 4.75. Further, in the experiment with male Sprague-Dawley rats, the change in vivo at 30 mg/kg was -7%. For `CC(C)c1cccc(C(C)C)c1NS(=O)(=O)CC(=O)O` [Example 30, (2,6-Diisopropylphenylsulfamoyl)-acetic Acid], in that order: less than 6.00 and 3%. The corresponding values for `CCCCCCCCCCOC(=O)CS(=O)(=O)Nc1c(C(C)C)cccc1C(C)C` [Example 24, (2,6-Diisopropylphenylsulfamoyl)-acetic Acid Decylester] are less than 6.00 and -16%.

In experiment [1], `CC(C)c1cc(C(C)C)c(NS(=O)(=O)CC(=O)Oc2c(C(C)C)cccc2C(C)C)c(C(C)C)c1` [Example 31, (2,4,6-Triisopropylphenylsulfamoyl)-acetic Acid, 2,6-Diisopropyl Ester] gave a pIC50 of less than 6.00. Further, the change in vivo at 30 mg/kg with male Sprague-Dawley rats was -29%. For `CCCCCCCCOC(=O)CS(=O)(=O)Nc1c(C(C)C)cccc1C(C)C` [Example 23, (2,6-Diisopropylphenylsulfamoyl)-acetic Acid Octyl Ester], in that order: less than 6.00 and -4%. The corresponding values for `CCCCCCCCCCCCSC(=O)CS(=O)(=O)Nc1c(OC)cc(OC)cc1OC` [Example 17, (2,4,6-Trimethoxyphenylsulfamoyl)-thioacetic Acid S-dodecyl Ester] are 6.24 and -3%.

As for `CCCCCCCCSC(=O)CS(=O)(=O)Nc1c(C(C)C)cccc1C(C)C` [Example 11, (2,6-Diisopropylphenylsulfamoyl)-thio-acetic Acid S-octyl Ester], in the experiment on male Sprague-Dawley rats, the change in vivo at 30 mg/kg is -32%.

For the compound `Cc1cccc(C)c1SC(=O)CS(=O)(=O)Nc1c(C(C)C)cccc1C(C)C` [Example 19, (2,6-Diisopropylphenylsulfamoyl)-thioacetic Acid S-2,6-dimethylphenyl Ester], in experiment [1], the pIC50 is less than 5.30. For the same compound, the change in vivo at 30 mg/kg in the experiment on male Sprague-Dawley rats amounted to 3%.

Take `COc1cc(OC)c(NC(=O)CS(=O)(=O)Nc2c(OC)cc(OC)cc2OC)c(OC)c1` [Example 27, N-(2,4,6-trimethyoxyphenyl)-2-(2,4,6-trimethoxy-phenylsulfamoyl)-acetamide]: the pIC50 in experiment [1] is 5.12. The change in vivo at 30 mg/kg with male Sprague-Dawley rats came out at 5%. In experiment [1], `CC(C)c1cccc(C(C)C)c1NS(=O)(=O)CC(=O)Sc1c(C(C)C)cccc1C(C)C` [Example 12, (2,6-Diisopropylphenylsulfamoyl)-thioacetic Acid 2,6-Diisopropylphenyl Ester] gave a pIC50 of less than 5.30. The change in vivo at 30 mg/kg in the experiment with male Sprague-Dawley rats was -16%. The corresponding values for `CCCCCCNC(=O)CS(=O)(=O)Nc1c(C(C)C)cccc1C(C)C` [Example 6, 2-(2,6-Diisopropylphenylsulfamoyl)-N-hexyl-acetamide] are less than 5.30 and -16%.

The values above are taken from patent US5491170A, “β-carboxy sulfonamide ACAT inhibitors” (priority 1994, dated 1996).
